Measured values as given in paper PMC6332448, “SAR Studies Leading to the Identification of a Novel Series of Metallo-β-lactamase Inhibitors for the Treatment of Carbapenem-Resistant Enterobacteriaceae Infections That Display Efficacy in an Animal Infection Model” (ACS Infectious Diseases, 2018).
≈ marks a conversion by molar mass, not a printed value. Where “and” joins values, the source holds several entries; their conditions need not be identical. Identical values can stand only once. Like-named read-outs stand apart in the source and are kept apart here.

Experiments:
[1] = target: VIM-1 (Pseudomonas aeruginosa, UniProt A0A0F7KYQ8); assay: biochemical; type: biochemical; conditions: for inhibition of VIM-1, in words: tested up to 200 μM
[2] = target: T1, VIM-2 (Escherichia coli, UniProt Q5U7L7); conditions: tested up to 200 μM
[3] = target: T1, VIM-2; assay: biochemical
[4] = target: NDM-1 (Klebsiella pneumoniae, UniProt C7C422); assay: biochemical; type: biochemical; conditions: for IC50: 10 mM HEPES pH 7.5, 25 °C, average of at least two independent assays; for inhibition of NDM-1, in words: tested up to 200 μM
[5] = target: IMP-1 (Serratia marcescens, UniProt P52699); assay: biochemical; type: biochemical; conditions: for inhibition of IMP-1, in words: tested up to 200 μM
[6] = test system: IMP-1-producing strain K. pneumoniae NTBC062; assay: Whole-cell meropenem potentiation, CLSI broth microdilution MIC; type: cell-based, Klebsiella pneumoniae; conditions: K. pneumoniae NTBC062 (IMP-1); for MICMEM (meropenem MIC in presence of inhibitor) vs NTBC062: inhibitor present at 100 μM, meropenem alone 4 μg/mL
Method: (§1) Minimal inhibitory concentrations (MIC) were determined using the Clinical Laboratory Standards Institute (CLSI) broth microdilution procedure. MBL-positive Enterobacteriaceae clinical isolates tested in the susceptibility study included NDM-1-producing strain E. coli NTBC121, VIM-1-producing strain K. pneumoniae NTBC055, and IMP-1-producing strain K. pneumoniae NTBC062. (Individual MICs for all strains tested are presented in Table 2 and Table 1 in the Supporting Information).

[7] = test system: VIM-1-producing strain Klebsiella pneumoniae NTBC055; assay: as above; type: cell-based; conditions: K. pneumoniae NTBC055 (VIM-1); for MICMEM (meropenem MIC in presence of inhibitor) vs NTBC055: inhibitor present at 100 μM, meropenem alone 16 μg/mL
Method: as §1

[8] = test system: NDM-1-producing strain Escherichia coli NTBC121; assay: as above; type: cell-based; conditions: for MICMEM (meropenem MIC in presence of inhibitor) vs NTBC121: inhibitor present at 100 μM, meropenem alone 32 μg/mL; for potentiation efficiency (PE = MIC/IC50): potentiated meropenem MIC vs E. coli NTBC121 divided by NDM-1 IC50
Method: as §1

[9] = Kinetic solubility in PBS pH 7.4; type: physicochemical; conditions: phosphate-buffered saline, pH 7.4, aqueous buffer, thermodynamic from solid
Method: This was determined by vigorous stirring (1200 rpm) of a 20 mg/mL mixture of the test compound in phosphate-buffered saline (PBS) at pH 7.4 for 4 h. The mixture was then centrifuged for 20 min at 10 000 rpm and the supernatant further processed by filtration. The concentration of the test compound in the filtrate was then determined by high-performance liquid chromatography (UV analysis) by comparison to a standard calibration curve of the test compound.

[10] = 300 μM imipenem, 10 mM HEPES pH 7.5, 25 °C, average of at least two independent assays, read-out: VIM-1 IC50
[11] = 300 μM imipenem, read-out: NDM-1 IC50
[12] = 300 μM imipenem, 10 mM HEPES pH 7.5, 25 °C, average of at least two independent assays, read-out: IMP-1 IC50
[13] = Klebsiella pneumoniae, no inhibitor

Sequence of IMP-1 (P52699 19-246, looked up, species assumed): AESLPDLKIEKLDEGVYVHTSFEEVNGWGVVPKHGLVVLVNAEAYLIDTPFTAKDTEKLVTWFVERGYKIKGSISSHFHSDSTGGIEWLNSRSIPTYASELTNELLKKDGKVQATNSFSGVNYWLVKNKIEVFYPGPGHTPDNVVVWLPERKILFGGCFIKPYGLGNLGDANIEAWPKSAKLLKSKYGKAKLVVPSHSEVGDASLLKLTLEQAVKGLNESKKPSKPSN
Sequence of NDM-1 (C7C422 29-270, looked up, species assumed): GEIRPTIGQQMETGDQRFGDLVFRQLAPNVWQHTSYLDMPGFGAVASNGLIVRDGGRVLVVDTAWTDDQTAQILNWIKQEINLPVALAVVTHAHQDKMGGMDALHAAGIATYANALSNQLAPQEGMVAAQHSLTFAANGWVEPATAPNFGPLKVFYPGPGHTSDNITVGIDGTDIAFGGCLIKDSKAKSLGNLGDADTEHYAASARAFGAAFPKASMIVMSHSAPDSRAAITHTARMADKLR

Cc1ccc(C(=O)Nc2cccnc2C(=O)O)cc1Cl [Compound 17]
IC50 [1]: 95.7 µM
inhibition of VIM-1, in words [1]: detectable inhibition
inhibition of VIM-2, in words [2]: detectable inhibition
IC50 [3]: 93 µM
IC50 ([4]; NDM-1 IC50, 300 μM imipenem): 8.46 µM and 8.5 µM
inhibition of NDM-1, in words [4]: low micromolar inhibition
IC50 [5]: 87.6 µM
inhibition of IMP-1, in words [5]: detectable inhibition

O=C(Nc1cccnc1C(=O)O)c1cocn1 [Compound 18]
IC50 [1]: > 200 µM
inhibition of VIM-1, in words [1]: inactive
inhibition of VIM-2, in words [2]: inactive
IC50 [3]: > 200 µM
IC50 ([4]; NDM-1 IC50, 300 μM imipenem): > 200 µM
inhibition of NDM-1, in words [4]: inactive
IC50 [5]: > 200 µM
inhibition of IMP-1, in words [5]: inactive

O=C(Cc1cccs1)Nc1cccnc1C(=O)O [Compound 23]
IC50 [1]: 133 µM
IC50 [3]: 91.3 µM
IC50 ([4]; NDM-1 IC50, 300 μM imipenem): 6.56 µM and 6.6 µM
IC50 [5]: 146 µM

O=C(O)c1ncccc1NS(=O)(=O)Cc1ccccc1Cl [Compound 39]
IC50 [1, 10]: 10.9 µM
MICMEM (meropenem MIC in presence of inhibitor) vs NTBC062 [6]: 1 µg/mL
IC50 [4, 11]: 32.6 µM
IC50 [5, 12]: 20.9 µM
MICMEM (meropenem MIC in presence of inhibitor) vs NTBC055 [7]: 0.5 µg/mL
MICMEM (meropenem MIC in presence of inhibitor) vs NTBC121 ([8]; E. coli NTBC121 (NDM-1)): 16 µg/mL

O=C(O)c1ncccc1NS(=O)(=O)Cc1cccc(C(F)(F)F)c1 [Compound 40]
IC50 [1, 10]: 71.6 µM
MICMEM (meropenem MIC in presence of inhibitor) vs NTBC062 [6]: 1 µg/mL
IC50 [4, 11]: 17.9 µM
IC50 [5, 12]: > 200 µM
MICMEM (meropenem MIC in presence of inhibitor) vs NTBC055 [7]: 2 µg/mL
MICMEM (meropenem MIC in presence of inhibitor) vs NTBC121 ([8]; E. coli NTBC121 (NDM-1)): 16 µg/mL

O=C(O)c1ncccc1NS(=O)(=O)Cc1ccc(Cl)cc1Cl [Compound 41]
IC50 [1, 10]: 17.5 µM
MICMEM (meropenem MIC in presence of inhibitor) vs NTBC062 [6]: 1 µg/mL
IC50 [4, 11]: 80.6 µM
IC50 [5, 12]: 74.3 µM
MICMEM (meropenem MIC in presence of inhibitor) vs NTBC055 [7]: 1 µg/mL
MICMEM (meropenem MIC in presence of inhibitor) vs NTBC121 ([8]; E. coli NTBC121 (NDM-1)): 16 µg/mL

O=C(O)c1ncccc1NS(=O)(=O)c1ccccc1 [Compound 61]
IC50 ([1]; read-out: VIM-1 IC50, 300 μM imipenem, 10 mM HEPES pH 7.5, 25 °C, average of at least two independent assays): > 200 µM
MICMEM (meropenem MIC in presence of inhibitor) vs NTBC062 [6]: 4 µg/mL
IC50 ([4]; read-out: NDM-1 IC50, 300 μM imipenem): 49.9 µM
IC50 ([5]; read-out: IMP-1 IC50, 300 μM imipenem, 10 mM HEPES pH 7.5, 25 °C, average of at least two independent assays): > 200 µM
MICMEM (meropenem MIC in presence of inhibitor) vs NTBC055 [7]: 4 µg/mL
MICMEM (meropenem MIC in presence of inhibitor) vs NTBC121 ([8]; E. coli NTBC121 (NDM-1)): 16 µg/mL
potentiation efficiency (PE = MIC/IC50) [8]: 0.32

O=C(O)c1ncsc1NS(=O)(=O)c1ccccc1 [Compound 62]
IC50 [1]: > 200 µM
MICMEM (meropenem MIC in presence of inhibitor) vs NTBC062 [6]: 1 µg/mL
IC50 [3]: 6.2 µM
IC50 ([4]; NDM-1 IC50, 300 μM imipenem): 4.5 µM
solubility at 4 h ([9]; acid form, read-out: solubility): 1.1 mg/mL (≈ 3.87 mM)
solubility at 4 h ([9]; sodium salt, read-out: solubility (Na salt)): 18.9 mg/mL
IC50 [5]: 58.2 µM
MICMEM (meropenem MIC in presence of inhibitor) vs NTBC055 [7]: 0.5 µg/mL
improvement in potentiation over that expected from enzyme inhibition alone ([8]; 62 (thiazolyl) versus 61 (pyridyl), from PE values): 10 fold
MICMEM (meropenem MIC in presence of inhibitor) vs NTBC121 ([8]; E. coli NTBC121 (NDM-1)): 0.125 µg/mL
potentiation efficiency (PE = MIC/IC50) [8]: 0.027

O=C(O)c1ncccc1NS(=O)(=O)Cc1ccccc1 [Compound 63]
IC50 [1]: > 100 µM
MICMEM (meropenem MIC in presence of inhibitor) vs NTBC062 [6]: 1 µg/mL
IC50 ([4]; NDM-1 IC50, 300 μM imipenem): > 100 µM
IC50 [5]: > 100 µM
MICMEM (meropenem MIC in presence of inhibitor) vs NTBC055 [7]: 1 µg/mL
MICMEM (meropenem MIC in presence of inhibitor) vs NTBC121 ([8]; E. coli NTBC121 (NDM-1)): 16 µg/mL

O=C(O)c1ncsc1NS(=O)(=O)Cc1ccccc1 [Compound 64]
IC50 [1]: 62.7 µM
MICMEM (meropenem MIC in presence of inhibitor) vs NTBC062 [6]: 0.5 µg/mL
IC50 ([4]; NDM-1 IC50, 300 μM imipenem): 2.53 µM
IC50 [5]: 1.83 µM
MICMEM (meropenem MIC in presence of inhibitor) vs NTBC055 [7]: 0.5 µg/mL
MICMEM (meropenem MIC in presence of inhibitor) vs NTBC121 ([8]; E. coli NTBC121 (NDM-1)): 0.5 µg/mL

N#Cc1cccc(CS(=O)(=O)Nc2cccnc2C(=O)O)c1 [Compound 65]
IC50 [1]: > 200 µM
MICMEM (meropenem MIC in presence of inhibitor) vs NTBC062 [6]: 1 µg/mL
IC50 ([4]; NDM-1 IC50, 300 μM imipenem): 116 µM
IC50 [5]: 150 µM
MICMEM (meropenem MIC in presence of inhibitor) vs NTBC055 [7]: 2 µg/mL
MICMEM (meropenem MIC in presence of inhibitor) vs NTBC121 ([8]; E. coli NTBC121 (NDM-1)): 32 µg/mL

N#Cc1cccc(CS(=O)(=O)Nc2scnc2C(=O)O)c1 [Compound 66]
IC50 [1]: 54.2 µM
MICMEM (meropenem MIC in presence of inhibitor) vs NTBC062 [6]: 1 µg/mL
IC50 ([4]; NDM-1 IC50, 300 μM imipenem): 8.82 µM
IC50 [5]: 2.51 µM
MICMEM (meropenem MIC in presence of inhibitor) vs NTBC055 [7]: 0.5 µg/mL
MICMEM (meropenem MIC in presence of inhibitor) vs NTBC121 ([8]; E. coli NTBC121 (NDM-1)): 2 µg/mL

O=C(O)c1ncsc1NS(=O)(=O)Cc1ccccc1Cl [Compound 68]
IC50 [1]: 6.72 µM
MICMEM (meropenem MIC in presence of inhibitor) vs NTBC062 [6]: 0.5 µg/mL
IC50 ([4]; NDM-1 IC50, 300 μM imipenem): 2.32 µM
IC50 [5]: 1.75 µM
MICMEM (meropenem MIC in presence of inhibitor) vs NTBC055 [7]: 0.25 µg/mL
MICMEM (meropenem MIC in presence of inhibitor) vs NTBC121 ([8]; E. coli NTBC121 (NDM-1)): 0.5 µg/mL

O=C(O)c1ncsc1NS(=O)(=O)Cc1ccc(Cl)c(Cl)c1 [Compound 70]
IC50 [1]: 37.9 µM
MICMEM (meropenem MIC in presence of inhibitor) vs NTBC062 [6]: 1 µg/mL
IC50 ([4]; NDM-1 IC50, 300 μM imipenem): 7.88 µM
IC50 [5]: 3.55 µM
MICMEM (meropenem MIC in presence of inhibitor) vs NTBC055 [7]: 1 µg/mL
MICMEM (meropenem MIC in presence of inhibitor) vs NTBC121 ([8]; E. coli NTBC121 (NDM-1)): 2 µg/mL

O=C(O)c1ncsc1NS(=O)(=O)Cc1ccc(Cl)cc1Cl [Compound 72]
IC50 [1]: 7 µM
MICMEM (meropenem MIC in presence of inhibitor) vs NTBC062 [6]: 0.5 µg/mL
IC50 ([4]; NDM-1 IC50, 300 μM imipenem): 2.1 µM
IC50 [5]: 0.5 µM
MICMEM (meropenem MIC in presence of inhibitor) vs NTBC055 [7]: 0.5 µg/mL
MICMEM (meropenem MIC in presence of inhibitor) vs NTBC121 ([8]; E. coli NTBC121 (NDM-1)): 0.5 µg/mL

O=C(O)c1ncsc1NS(=O)(=O)Cc1cc(Cl)cc(Cl)c1 [Compound 74]
IC50 [1]: 28 µM
MICMEM (meropenem MIC in presence of inhibitor) vs NTBC062 [6]: 1 µg/mL
IC50 ([4]; NDM-1 IC50, 300 μM imipenem): 6.9 µM
IC50 [5]: 3.2 µM
MICMEM (meropenem MIC in presence of inhibitor) vs NTBC055 [7]: 0.5 µg/mL
MICMEM (meropenem MIC in presence of inhibitor) vs NTBC121 ([8]; E. coli NTBC121 (NDM-1)): 2 µg/mL

O=C(O)c1ncsc1NS(=O)(=O)c1ccccn1 [Compound 75]
IC50 [1]: > 200 µM
IC50 [3]: 16.1 µM
IC50 ([4]; NDM-1 IC50, 300 μM imipenem): 12.9 µM
IC50 [5]: 114 µM

O=C(O)c1ncsc1NS(=O)(=O)c1ccncc1 [Compound 77]
IC50 [1]: 180 µM
IC50 [3]: 1.8 µM
IC50 ([4]; NDM-1 IC50, 300 μM imipenem): 3.4 µM
IC50 [5]: 23.4 µM

C[C@@H](O)[C@H]1C(=O)N2C(C(=O)O)=C(S[C@@H]3CN[C@H](C(=O)N(C)C)C3)[C@H](C)[C@H]12 [meropenem, reference compound]
MIC [6, 13]: 4 µg/mL
MIC meropenem (no inhibitor) vs NTBC062 ([6]; no inhibitor): 4 µg/mL
MIC [7, 13]: 16 µg/mL
MIC meropenem (no inhibitor) vs NTBC055 ([7]; no inhibitor): 16 µg/mL
MIC ([8]; Escherichia coli, no inhibitor, E. coli NTBC121 (NDM-1)): 32 µg/mL
MIC meropenem (no inhibitor) vs NTBC121 ([8]; no inhibitor, E. coli NTBC121 (NDM-1)): 32 µg/mL
